# From patent US8134015B2, “Compound inhibiting in vivo phosphorous transport and medicine containing the same” (Kyowa Hakko Kirin Co., Ltd., priority 2003, dated 2012)
# Target: T1, rat NaPi-2b (Rattus norvegicus, UniProt Q9JJ09)
# T1 construct: expressed in transfected cells; host or cells: Xenopus oocytes injected with cRNA
# T1 sequence (Q9JJ09 1-695): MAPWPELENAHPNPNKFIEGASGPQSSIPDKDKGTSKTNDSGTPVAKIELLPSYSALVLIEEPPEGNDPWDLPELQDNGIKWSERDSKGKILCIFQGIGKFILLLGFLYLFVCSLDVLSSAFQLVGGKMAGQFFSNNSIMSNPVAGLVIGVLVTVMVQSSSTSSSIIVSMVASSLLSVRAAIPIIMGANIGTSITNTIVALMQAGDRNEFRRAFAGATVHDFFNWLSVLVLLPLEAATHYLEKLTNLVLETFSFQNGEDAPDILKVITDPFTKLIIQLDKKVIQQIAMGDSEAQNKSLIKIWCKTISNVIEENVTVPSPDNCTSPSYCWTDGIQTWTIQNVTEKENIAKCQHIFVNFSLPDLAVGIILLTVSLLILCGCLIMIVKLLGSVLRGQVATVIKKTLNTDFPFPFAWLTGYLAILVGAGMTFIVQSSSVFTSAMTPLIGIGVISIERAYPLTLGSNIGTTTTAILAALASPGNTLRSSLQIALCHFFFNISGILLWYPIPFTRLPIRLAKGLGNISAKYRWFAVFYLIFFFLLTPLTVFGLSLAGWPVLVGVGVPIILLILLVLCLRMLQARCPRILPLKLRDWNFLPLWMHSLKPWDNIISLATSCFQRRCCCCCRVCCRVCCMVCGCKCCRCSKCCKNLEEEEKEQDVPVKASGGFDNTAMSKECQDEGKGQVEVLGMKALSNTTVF
# Test: Sodium-dependent phosphate uptake of Xenopus oocytes which expressed NaPi-2b (32P)
# Format: cell-based
# Settings: Xenopus oocytes expressing rat NaPi-2b, 32P radioactive phosphorus; read-out: IC50 (phosphate uptake inhibitory activity)
# Outline: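 Percent inhibition at 300 μM and 100 μM comes from the same inhibition curve of 32P uptake. Assay used oocytes expressing rat NaPi-2b after 2 days of culture.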
row,Structure (SMILES),IC50 [nM]
1,"COc1cccc(/C=N/NC(=O)c2cc(Cl)ccc2NC(=O)c2cccc(CN3CCC(N4CCCCC4)CC3)c2)c1 [Compound 374, 3-[1,4′]Bipiperidinyl-1′-ylmethyl-N-[4-chloro-2-(3-methoxy-benzylidene-hydrazinocarbonyl)-phenyl]-benzamide]",9250
2,"COc1ccc(/C=N/NC(=O)c2cc(Cl)ccc2NC(=O)c2cccc(CN3CCC(N4CCCCC4)CC3)c2)cc1 [Compound 375, 3-[1,4′]Bipiperidinyl-1′-ylmethyl-N-[4-chloro-2-(4-methoxy-benzylidene-hydrazinocarbonyl)-phenyl]-benzamide]",24700
3,"O=C(Nc1ccc(Cl)cc1C(=O)N/N=C/c1cccc(O)c1)c1cccc(CN2CCC(N3CCCCC3)CC2)c1 [Compound 376, 3-[1,4′]Bipiperidinyl-1′-ylmethyl-N-[4-chloro-2-(3-hydroxy-benzylidene-hydrazinocarbonyl)-phenyl]-benzamide]",21000
4,"O=C(Nc1ccc(Cl)cc1C(=O)N/N=C/c1ccc(O)cc1)c1cccc(CN2CCC(N3CCCCC3)CC2)c1 [Compound 377, 3-[1,4′]Bipiperidinyl-1′-ylmethyl-N-[4-chloro-2-(4-hydroxy-benzylidene-hydrazinocarbonyl)-phenyl]-benzamide]",9650
5,"COc1cccc(CNNC(=O)c2cc(Br)ccc2NC(=O)c2ccc(CN3CCC(N4CCCCC4)CC3)cc2)c1 [Compound 378, 4-[1,4′]Bipiperidinyl-1′-ylmethyl-N-{4-bromo-2-[N′-(3-methoxy-benzyl)-hydrazinocarbonyl]-phenyl}-benzamide]",4350
6,"CCN(CC)CCN(C)Cc1cccc(C(=O)Nc2ccc(Cl)cc2C(=O)N/N=C/c2ccc(C)c(C)c2)c1 [Compound 383, N-[4-Chloro-2-(3,4-dimethyl-benzylidene-hydrazinocarbonyl)-phenyl]-3-{[(2-diethylamino-ethyl)-methyl-amino]-methyl}-benzamide]",1980
7,"CCN(CC)CCN(C)Cc1cccc(C(=O)Nc2ccc(Cl)cc2C(=O)N/N=C/c2ccc(OC)cc2)c1 [Compound 386, N-[4-Chloro-2-(4-methoxy-benzylidene-hydrazinocarbonyl)-phenyl]-3-{[(2-diethylamino-ethyl)-methyl-amino]-methyl}-benzamide]",< 3000
8,"CCN(CC)CCN(C)Cc1cccc(C(=O)Nc2ccc(Cl)cc2C(=O)N/N=C/c2cccc(O)c2)c1 [Compound 387, N-[4-Chloro-2-(3-hydroxy-benzylidene-hydrazinocarbonyl)-phenyl]-3-{[(2-diethylamino-ethyl)-methyl-amino]-methyl}-benzamide]",6450
9,"CCN(CC)CCN(C)Cc1cccc(C(=O)Nc2ccc(Cl)cc2C(=O)N/N=C/c2ccc(O)cc2)c1 [Compound 388, N-[4-Chloro-2-(4-hydroxy-benzylidene-hydrazinocarbonyl)-phenyl]-3-{[(2-diethylamino-ethyl)-methyl-amino]-methyl}-benzamide]",19700
10,"CN(CCO)Cc1cccc(C(=O)Nc2ccc(Cl)cc2C(=O)N/N=C/c2ccc(F)cc2)c1 [Compound 395, N-[4-Chloro-2-(4-fluoro-benzylidene-hydrazinocarbonyl)-phenyl]-3-{[(2-hydroxy-ethyl)-methyl-amino]-methyl}-benzamide]",8550
11,"Cc1cccc(/C=N/NC(=O)c2cc(Cl)ccc2NC(=O)c2cccc(CN(C)CCO)c2)c1 [Compound 396, N-[4-Chloro-2-(3-methyl-benzylidene-hydrazinocarbonyl)-phenyl]-3-{[(2-hydroxy-ethyl)-methyl-amino]-methyl}-benzamide]",8190
12,"Cc1ccc(/C=N/NC(=O)c2cc(Cl)ccc2NC(=O)c2cccc(CN(C)CCO)c2)cc1 [Compound 397, N-[4-Chloro-2-(4-methyl-benzylidene-hydrazinocarbonyl)-phenyl]-3-{[(2-hydroxy-ethyl)-methyl-amino]-methyl}-benzamide]",9250
13,"CN(CCO)Cc1cccc(C(=O)Nc2ccc(Cl)cc2C(=O)N/N=C/c2ccc(Cl)c(C(F)(F)F)c2)c1 [Compound 399, N-[4-Chloro-2-(4-chloro-3-trifluoromethyl-benzylidene-hydrazinocarbonyl)-phenyl]-3-{[(2-hydroxy-ethyl)-methyl-amino]-methyl}-benzamide]",3670

# More lines, now with the values ahead:
row,IC50 [nM],Structure (SMILES)
1,1680,"O=C(Nc1ccc(Cl)cc1C(=O)N/N=C/c1ccc(Cl)c(C(F)(F)F)c1)c1cccc(CN2CCC(N3CCCCC3)CC2)c1 [Compound 373, 3-[1,4′]Bipiperidinyl-1′-ylmethyl-N-[4-chloro-2-(4-chloro-3-trifluoromethyl-benzylidene-hydrazinocarbonyl)-phenyl]-benzamide]"
2,970,"CCN(CC)CCN(C)Cc1cccc(C(=O)Nc2ccc(Cl)cc2C(=O)N/N=C/c2cccc(F)c2)c1 [Compound 379, N-[4-Chloro-2-(3-fluoro-benzylidene-hydrazinocarbonyl)-phenyl]-3-{[(2-diethylamino-ethyl)-methyl-amino]-methyl}-benzamide]"
3,350,"CCN(CC)CCN(C)Cc1cccc(C(=O)Nc2ccc(Cl)cc2C(=O)N/N=C/c2ccc(F)cc2)c1 [Compound 380, N-[4-Chloro-2-(4-fluoro-benzylidene-hydrazinocarbonyl)-phenyl]-3-{[(2-diethylamino-ethyl)-methyl-amino]-methyl}-benzamide]"
4,1000,"CCN(CC)CCN(C)Cc1cccc(C(=O)Nc2ccc(Cl)cc2C(=O)N/N=C/c2cccc(C)c2)c1 [Compound 381, N-[4-Chloro-2-(3-methyl-benzylidene-hydrazinocarbonyl)-phenyl]-3-{[(2-diethylamino-ethyl)-methyl-amino]-methyl}-benzamide]"
5,1040,"CCN(CC)CCN(C)Cc1cccc(C(=O)Nc2ccc(Cl)cc2C(=O)N/N=C/c2ccc(C)cc2)c1 [Compound 382, N-[4-Chloro-2-(4-methyl-benzylidene-hydrazinocarbonyl)-phenyl]-3-{[(2-diethylamino-ethyl)-methyl-amino]-methyl}-benzamide]"
6,250,"CCN(CC)CCN(C)Cc1cccc(C(=O)Nc2ccc(Cl)cc2C(=O)N/N=C/c2ccc(Cl)c(C(F)(F)F)c2)c1 [Compound 384, N-[4-Chloro-2-(4-chloro-3-trifluoromethyl-benzylidene-hydrazinocarbonyl)-phenyl]-3-{[(2-diethylamino-ethyl)-methyl-amino]-methyl}-benzamide]"
7,310,"CCN(CC)CCN(C)Cc1cccc(C(=O)Nc2ccc(Cl)cc2C(=O)N/N=C/c2cccc(OC)c2)c1 [Compound 385, N-[4-Chloro-2-(3-methoxy-benzylidene-hydrazinocarbonyl)-phenyl]-3-{[(2-diethylamino-ethyl)-methyl-amino]-methyl}-benzamide]"
8,1090,"O=C(Nc1ccc(Cl)cc1C(=O)N/N=C/c1cccc(F)c1)c1cccc(CSc2nc[nH]n2)c1 [Compound 389, N-[4-Chloro-2-(3-fluoro-benzylidene-hydrazinocarbonyl)-phenyl]-3-(1H-[1,2,4]triazol-3-ylsulfanylmethyl)-benzamide]"
9,450,"O=C(Nc1ccc(Cl)cc1C(=O)N/N=C/c1ccc(F)cc1)c1cccc(CSc2nc[nH]n2)c1 [Compound 390, N-[4-Chloro-2-(4-fluoro-benzylidene-hydrazinocarbonyl)-phenyl]-3-(1H-[1,2,4]triazol-3-ylsulfanylmethyl)-benzamide]"
10,1020,"Cc1cccc(/C=N/NC(=O)c2cc(Cl)ccc2NC(=O)c2cccc(CSc3nc[nH]n3)c2)c1 [Compound 391, N-[4-Chloro-2-(3-methyl-benzylidene-hydrazinocarbonyl)-phenyl]-3-(1H-[1,2,4]triazol-3-ylsulfanylmethyl)-benzamide]"
11,1420,"Cc1ccc(/C=N/NC(=O)c2cc(Cl)ccc2NC(=O)c2cccc(CSc3nc[nH]n3)c2)cc1 [Compound 392, N-[4-Chloro-2-(4-methyl-benzylidene-hydrazinocarbonyl)-phenyl]-3-(1H-[1,2,4]triazol-3-ylsulfanylmethyl)-benzamide]"
12,520,"O=C(Nc1ccc(Cl)cc1C(=O)N/N=C/c1ccc(Cl)c(C(F)(F)F)c1)c1cccc(CSc2nc[nH]n2)c1 [Compound 393, N-[4-Chloro-2-(4-chloro-3-trifluoromethyl-benzylidene-hydrazinocarbonyl)-phenyl]-3-(1H-[1,2,4]triazol-3-ylsulfanylmethyl)-benzamide]"
13,950,"CN(CCO)Cc1cccc(C(=O)Nc2ccc(Cl)cc2C(=O)N/N=C/c2cccc(F)c2)c1 [Compound 394, N-[4-Chloro-2-(3-fluoro-benzylidene-hydrazinocarbonyl)-phenyl]-3-{[(2-hydroxy-ethyl)-methyl-amino]-methyl}-benzamide]"
14,< 300,"Cc1ccc(/C=N/NC(=O)c2cc(Cl)ccc2NC(=O)c2cccc(CN(C)CCO)c2)cc1C [Compound 398, N-[4-Chloro-2-(3,4-dimethyl-benzylidene-hydrazinocarbonyl)-phenyl]-3-{[(2-hydroxy-ethyl)-methyl-amino]-methyl}-benzamide]"
